Data: patent US20100215618A1, “NOVEL COMPOUNDS - 644” (Arrow Therapeutics Limited, priority 2009, published 2010)
Where two headings read alike, the source gives them in different places.

Key:
[1] = test system: HCV replicon cells Huh 9B; type: cell-based; settings: Huh 9B replicon cells, 72 h, methylene blue, total cell area reduced by 50%
Method: HCV replicon cells Huh 9B (ReBlikon), containing the firefly luciferase-ubiquitin-neomycin phosphotransferase fusion protein and EMCV-IRES driven HCV polyprotein with cell culture adaptive mutations.
Replicon cells were trypsinised and counted. Cells were diluted to 100,000 cells/ml and 100 μl used to seed one opaque white 96-well plate (for the replicon assay) and one flat-bottomed clear plate (for the tox assay) for every five compounds to be tested for IC50. Wells G12 and H12 were left empty in the clear plate as the blank. Plates were then incubated at 37° C./5% CO2 for 24 h.
On the following day compound dilutions were prepared in medium at twice their desired final concentration in a clear round bottomed plate. All dilutions have a final DMSO concentration of 1%.
Controls and compounds were transferred from the dilution plates to the assay plates (containing the cells) at 100 μl/well in duplicate wells.
Exception: no compound was added to wells A1 and A2 of either plate and 100 μl of 1% DMSO was added to these instead. Plates were then incubated at 37° C./5% CO2 for 72 h.
The clear plate was stained with 100 μA 0.5% methylene blue in 50% ethanol at room temperature for 1 h, followed by solvation of the absorbed methylene blue in 100 μl per well of 1% lauroylsarcosine. Absorbance of the plate was measured on a microplate spectrophotometer (Molecular Devices) and the absorbance for each concentration of compound expressed as a proportion of the relative DMSO control. The TD50, the is concentration of drug required to reduce the total cell area by 50% relative to the DMSO controls, was calculated by plotting the absorbance at 620 nm after background substraction against drug concentration.

[2] = test system: HCV replicon cells Huh 9B (genotype 1b); test: 1b Replicon Assay (luciferase readout); type: cell-based; settings: Hepatitis C virus, Huh 9B replicon cells, 72 h, luciferase activity
[3] = in vitro; type: in vitro ADME, Canine; settings: dog, MDCK
Method: Cells used: MDCK (Madin-Darby Canine Kidney) cells, ATCC collection # CCL-34, are used to model the intestinal barrier. Cell culture conditions: cells were cultured at 37° C. in a 5% CO2 environment and split twice a week on seeding at 4×10^5 cells/flask (75 cm^2) on day 1 and 2×10^5 cells/flask on day 4. The culture medium consisted of MEM+Earle's-L Glutamine (Gibco #21090-022) supplemented with 10% Australian Fetal Calf Serum (Sigma #F6178), 2 mM L-Glutamine (Gibco #25030-024) and 1× Non Essential Amino Acids (Gibco #11140-035)
On day 1, a 24-well plate (Sarstedt, #83.1836.300) was filled with individual 3 lam pore membrane inserts (Millipore, #PITP 012 50). Each plate allows the testing of a cocktail of 3 control compounds and 11 test compounds in duplicate. The wells (outside the inserts) were filled with 500 μl of culture medium.
A flask of cells was trypsinised and a cell count carried out. Cells were diluted to 1.2×10^5 cells/ml (1×10^5 cells/cm^2) and 500 μl dispensed in each insert on the 24-well plate. The plate was incubated at 37° C. in a 5% CO2 environment for 48 hours.
On day 3, the culture medium was removed from the wells, then the inserts and is replaced with fresh culture medium in the wells, then the inserts (500111 per well and insert) The plate was incubated at 37° C. in a 5% CO2 environment for 24 hours.
On day 4, the controls cocktail and test compounds solutions were made up in HBSS buffer (Hank's Balanced Salt Solution, Gibco #14025-050) at 1011M. The final controls and test compounds concentration in the assay was 10 μM, and DMSO concentration maintained at 0.1% (0.3% for the controls cocktail). The controls cocktail was made up of Atenolol (Sigma # A-7655), Dexamethasone (Sigma #D-1756) and Propranolol (Sigma # P-0884).
A 24-well plate was filled with 500 μl of HBSS buffer per well (assay plate) The culture medium was removed from the wells and inserts. The inserts were washed three times with approximately 500 μl of HBSS buffer. The inserts were transferred to the assay plate. Controls cocktail and test compounds solutions were dispensed inside the inserts (500 μl per insert), in duplicates. The assay plate was incubated at 37° C. in a 5% CO2 environment for 2 hours.
After 2 hours, the inserts were removed from the assay plate and transferred into a new 24-well plate (wash plate) The assay plate containing the receiver solutions was left aside for later sampling. To measure the mass balance, 150 μl were sampled from each insert (donor solutions) and dispensed into 150 μl of HPLC-grade Acetonitrile (Fisher Scientific) containing an internal standard and 0.05% formic acid.
The donor solutions were aspirated and discarded from each insert, and the inserts washed once with approximately 500 μl of HBSS buffer. A 24-well plate was filled with 500 μl of HBSS buffer per well (monolayer integrity plate) A Lucifer Yellow (Sigma #L0144) solution was made up at 1001.1M in HBSS buffer. The empty inserts were transferred into the monolayer integrity plate and filled with 500 μl of the Lucifer Yellow solution to determine the cell monolayers integrity and leftover of the solution was kept in a fridge. The plate was incubated at 37° C. in a 5% CO2 environment for 2 hours.
In the meantime, 150 μl were sampled from the assay plate (receiver solutions) and dispensed into 150 μl of HPLC-grade Acetonitrile containing an internal standard and 0.05% formic acid. A calibration curve was made for each mix of compounds (as appropriate depending on compounds molecular weights) A 10 μM mix of compounds in HBSS buffer was diluted 1:1 in HPLC-grade Acetonitrile containing an internal standard and 0.05% formic acid. A 1:1 mix of HBSS buffer and HPLC-grade Acetonitrile containing an internal standard and 0.05% formic acid was made up and used to make up the calibration curve (2 fold dilutions), with concentrations ranging from 10 μM to 0.078 μM. […]

[4] = read-out: pIC50 1b Replicon (converted)

Row | Structure (SMILES) | HCV TD50 Replicon [1] [µM] | IC50 ([2]; read-out: HCV IC50 1b Replicon) [nM] | IC50 [2, 4] [nM] | Papp at 2 h, 10 µM [3] [×10⁻⁶ cm/s]
1 | COC(=O)N[C@@H](C(=O)N1CCC[C@H]1c1ncc(-c2ccc(-c3ccc(C(=O)Nc4ccc(CN5CCS(=O)(=O)CC5)cc4)cc3)cc2)[nH]1)C(C)C [Example 13, Methyl N-[(1R)-1-[(2S)-2-[5-[4-[4-[[4-[(1,1-dioxo-1,4-thiazinan-4-yl)methyl]phenyl]carbamoyl]phenyl]phenyl]-1H-imidazol-2-yl]pyrrolidine-1-carbonyl]-2-methyl-propyl]carbamate] | >25 | 42.2 | 41.7 | 0.3
2 | COC(=O)N[C@H](CC(C)C)C(=O)N1CCC[C@H]1c1ncc(-c2ccc(-c3ccc(C(=O)Nc4ccc(CN5CCS(=O)(=O)CC5)cc4)cc3)cc2)[nH]1 [Example 15, Methyl N-[(1R)-1-[(2S)-2-[5-[4-[4-[[4-[(1,1-dioxo-1,4-thiazinan-4-yl)methyl]phenyl]carbamoyl]phenyl]phenyl]-1H-imidazol-2-yl]pyrrolidine-1-carbonyl]-3-methyl-butyl]carbamate] | >25 | 3.84 | 3.8 | 0.3
3 | COC(=O)N[C@H](C(=O)N1CCC[C@H]1c1ncc(-c2ccc(-c3ccc(C(=O)Nc4ccc(CN5CCS(=O)(=O)CC5)cc4)cc3)cc2)[nH]1)[C@@H](C)O [Example 17, Methyl N-[(1S,2R)-1-[(2S)-2-[5-[4-[4-[[4-[(1,1-dioxo-1,4-thiazinan-4-yl)methyl]phenyl]carbamoyl]phenyl]phenyl]-1H-imidazol-2-yl]pyrrolidine-1-carbonyl]-2-hydroxy-propyl]carbamate] | 18.4 | 0.3 | 0.302 | 0.4
